Data published in patent US6020521A, “Macrolide LHRH antagonists” (Abbott Laboratories, priority 1998, dated 2000).

Biological target: T1, LHRH rat pituitary receptor (Rattus norvegicus, UniProt P30969)
T1 construct: from tissue; host or cells: rat pituitary
T1 sequence (P30969 1-327): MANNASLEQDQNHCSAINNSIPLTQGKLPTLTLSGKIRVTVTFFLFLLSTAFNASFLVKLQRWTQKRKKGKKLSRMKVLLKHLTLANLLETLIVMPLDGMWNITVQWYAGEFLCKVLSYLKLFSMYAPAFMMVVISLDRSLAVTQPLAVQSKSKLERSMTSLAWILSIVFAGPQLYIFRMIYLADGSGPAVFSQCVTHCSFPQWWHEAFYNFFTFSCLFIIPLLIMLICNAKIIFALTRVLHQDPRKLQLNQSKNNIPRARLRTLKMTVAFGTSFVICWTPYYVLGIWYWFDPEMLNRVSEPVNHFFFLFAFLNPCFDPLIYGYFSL
Assay: LHRH rat pituitary receptor binding (pKI)
Settings: receptor binding affinity, negative logarithm of the equilibrium dissociation constants
Description: Representative compounds of the present invention were evaluated in in vitro tests for LHRH rat pituitary receptor binding (pKI) and for LH inhibition from rat pituitary cells for antagonist potency (pA2). The tests employed the methods detailed in F. Haviv, et al. J. Med. Chem., 32: 2340-2344 (1989). The receptor binding affinity (pKI) is the negative logarithm of the equilibrium dissociation constants.

Row | Compound | Ki
1 | CC[C@H]1OC(=O)[C@H](C)[C@@H](OC(=O)N2C(=O)OC[C@@H]2C)[C@H](C)[C@@H](O[C@@H]2O[C@H](C)C[C@H](N(C)C3CCCC3)[C@H]2O)[C@](C)(OC)C[C@@H](C)C(=O)[C@H](C)[C@H]2N(CCc3ccc(F)cc3)C(=O)O[C@]12C [Example 30, 11-Deoxy-11-[carboxy(4-fluorophenethyl)amino]-3-O-[4-(S)-methyl-oxazolidin-2-one]carbamoyl-5-O-(3'-N-desmethyl-3'-N-cyclopentyl)desosaminyl-6-O-methyl-erythronolide A 11,12-(cyclic carbamate)] | 0.129 nM
2 | CC[C@H]1OC(=O)[C@H](C)[C@@H](OC(=O)N2COC[C@H]2C)[C@H](C)[C@@H](O[C@@H]2O[C@H](C)C[C@H](N(C)C(C)C)[C@H]2O)[C@](C)(OC)C[C@@H](C)C(=O)[C@H](C)[C@H]2N(CCc3ccc(Cl)cc3)C(=O)O[C@]12C [Example 8, 11-Deoxy-11-[carboxy(4-chlorophenethyl)amino]-5-O-(3'-N-desmethyl-3'-N-isopropyl)desosaminyl-3-O-[4-(R)-methyl-oxazolidine]carbamoyl-6-O-methyl-erythronolide A 11,12-(cyclic carbamate)] | 11.7 nM
3 | CC[C@H]1OC(=O)[C@H](C)[C@@H](OC(=O)N2C(=O)OC[C@@H]2C)[C@H](C)[C@@H](O[C@@H]2O[C@H](C)C[C@H](N(CC)C(C)C)[C@H]2O)[C@](C)(OC)C[C@@H](C)C(=O)[C@H](C)[C@H]2N(CCc3ccc(Cl)c(Cl)c3)C(=O)O[C@]12C [Example 20, 11-Deoxy-11-[carboxy(3,4-dichlorophenethyl)amino]-3-O-[4-(S)-methyl-oxazolidin-2-one]carbamoyl-5-O-(3'-bis-N-desmethyl-3'-N-ethyl-3'-N-isopropyl)desosaminyl-6-O-methyl-erythronolide A 11,12-(cyclic carbamate)] | 0.589 nM
4 | CC[C@H]1OC(=O)[C@H](C)[C@@H](OC(=O)N2C(=O)OC[C@@H]2C)[C@H](C)[C@@H](O[C@@H]2O[C@H](C)C[C@H](N(CC3CC3)CC3CC3)[C@H]2O)[C@](C)(OC)C[C@@H](C)C(=O)[C@H](C)[C@H]2N(CCc3ccc(Cl)c(F)c3)C(=O)O[C@]12C [Example 44, 11-Deoxy-11-[carboxy(4-chloro-3-fluorophenethyl)amino]-3-O-[4-(S)-methyl-oxazolidin-2-one]carbamoyl-5-O-(3'-bis-N-desmethyl-3'-bis-N-cyclopropylmethyl)desosaminyl-6-O-methyl-erythronolide A 11,12-(cyclic carbamate)] | 3.16 nM
5 | CC[C@H]1OC(=O)[C@H](C)[C@@H](OC(=O)N2C(=O)OC[C@@H]2C)[C@H](C)[C@@H](O[C@@H]2O[C@H](C)C[C@H](N(C)CC3CC3)[C@H]2O)[C@](C)(OC)C[C@@H](C)C(=O)[C@H](C)[C@H]2N(CCc3ccc(Cl)c(F)c3)C(=O)O[C@]12C [Example 36, 11-Deoxy-11-[carboxy(4-chloro-3-fluorophenethyl)amino]-3-O-[4-(S)-methyl-oxazolidin-2-one]carbamoyl-5-O-(3'-N-desmethyl-3'-N-cyclopropylmethyl)desosaminyl-6-O-methyl-erythronolide A 11,12-(cyclic carbamate)] | 3.72 nM
6 | CC[C@H]1OC(=O)[C@H](C)[C@@H](OC(=O)N2C(=O)OC[C@@H]2C)[C@H](C)[C@@H](O[C@@H]2O[C@H](C)C[C@H](N(CC3CC3)C(C)C)[C@H]2O)[C@](C)(OC)C[C@@H](C)C(=O)[C@H](C)[C@H]2N(CCc3ccc(F)c(Cl)c3)C(=O)O[C@]12C [Example 56, 11-Deoxy-11-[carboxy(3-chloro-4-fluorophenethyl)amino]-3-O-[4-(S)-methyl-oxazolidin-2-one]carbamoyl-5-O-(3'-bis-N-desmethyl-3'-N-cyclopropylmethyl-3'-N-isopropyl)desosaminyl-6-O-methyl-erythronolide A 11,12-(cyclic carbamate)] | 0.12 nM
7 | CC[C@H]1OC(=O)[C@H](C)[C@@H](OC(=O)N2C(=O)OC[C@@H]2C)[C@H](C)[C@@H](O[C@@H]2O[C@H](C)C[C@H](N(C)CC3(C)CC3)[C@H]2O)[C@](C)(OC)C[C@@H](C)C(=O)[C@H](C)[C@H]2N(CCc3ccc(F)c(Cl)c3)C(=O)O[C@]12C [Example 55, 11-Deoxy-11-[carboxy(3-chloro-4-fluorophenethyl)amino]-3-O-[4-(S)-methyl-oxazolidin-2-one]carbamoyl-5-O-[3'-N-desmethyl-3'-N-(1-methyl-cyclopropyl)methyl]desosaminyl-6-O-methyl-erythronolide A 11,12-(cyclic carbamate)] | 0.316 nM
8 | CCCN(C(C)C)[C@H]1C[C@@H](C)O[C@@H](O[C@@H]2[C@@H](C)[C@H](OC(=O)N3C(=O)OC[C@@H]3C)[C@@H](C)C(=O)O[C@H](CC)[C@@]3(C)OC(=O)N(CCc4ccc(Cl)c(Cl)c4)[C@@H]3[C@@H](C)C(=O)[C@H](C)C[C@@]2(C)OC)[C@@H]1O [Example 21, 11-Deoxy-11-[carboxy(3,4-dichlorophenethyl)amino]-3-O-[4-(S)-methyl-oxazolidin-2-one]carbamoyl-5-O-(3'-bis-N-desmethyl-3'-N-n-propyl-3'-N-isopropyl)desosaminyl-6-O-methyl-erythronolide A 11,12-(cyclic carbamate)] | 0.245 nM
9 | CC[C@H]1OC(=O)[C@H](C)[C@@H](OC(=O)N2C(=O)OC[C@@H]2C)[C@H](C)[C@@H](O[C@@H]2O[C@H](C)C[C@H](N(C)C3CCCCC3)[C@H]2O)[C@](C)(OC)C[C@@H](C)C(=O)[C@H](C)[C@H]2N(CCc3ccc(Cl)c(Cl)c3)C(=O)O[C@]12C [Example 15, 11-Deoxy-11-[carboxy(3,4-dichlorophenethyl)amino]-3-O-[4-(S)-methyl-oxazolidin-2-one]carbamoyl-5-O-(3'-N-desmethyl-3'-N-cyclohexyl)desosaminyl-6-O-methyl-erythronolide A 11,12-(cyclic carbamate)] | 3.89 nM

More lines, in order of falling Ki, values ahead:

Row | Ki | Compound
10 | 3.98 nM | CCCN(C)[C@H]1C[C@@H](C)O[C@@H](O[C@@H]2[C@@H](C)[C@H](OC(=O)N3C(=O)OC[C@@H]3C)[C@@H](C)C(=O)O[C@H](CC)[C@@]3(C)OC(=O)N(CCc4ccc(Cl)c(Cl)c4)[C@@H]3[C@@H](C)C(=O)[C@H](C)C[C@@]2(C)OC)[C@@H]1O [Example 16, 11-Deoxy-11-[carboxy(3,4-dichlorophenethyl)amino]-3-O-[4-(S)-methyl-oxazolidin-2-one]carbamoyl-5-O-(3'-N-desmethyl-3'-N-n-propyl)desosaminyl-6-O-methyl-erythronolide A 11,12-(cyclic carbamate)]
11 | 3.16 nM | CC[C@H]1OC(=O)[C@H](C)[C@@H](OC(=O)N2C(=O)OC[C@@H]2C)[C@H](C)[C@@H](O[C@@H]2O[C@H](C)C[C@H](N(C)C)[C@H]2O)[C@](C)(OC)C[C@@H](C)C(=O)[C@H](C)[C@H]2N(CCc3ccc(Cl)c(Cl)c3)C(=O)O[C@]12C [Example 11, 11-Deoxy-11-[carboxy(3,4-dichlorophenethyl)amino]-3-O-[4-(S)-methyl-oxazolidin-2-one]carbamoyl-5-O-desosaminyl-6-O-methyl-erythronolide A 11,12-(cyclic carbamate)]
12 | 1.48 nM | CC[C@H]1OC(=O)[C@H](C)[C@@H](OC(=O)N2C(=O)OC[C@@H]2C)[C@H](C)[C@@H](O[C@@H]2O[C@H](C)C[C@H](N(C)CC3(C)CC3)[C@H]2O)[C@](C)(OC)C[C@@H](C)C(=O)[C@H](C)[C@H]2N(CCc3ccc(Cl)c(Cl)c3)C(=O)O[C@]12C [Example 54, 11-Deoxy-11-[carboxy(3,4-dichlorophenethyl)amino]-3-O-[4-(S)-methyl-oxazolidin-2-one]carbamoyl-5-O-[3'-N-desmethyl-3'-N-(1-methyl-cyclopropyl)methyl]desosaminyl-6-O-methyl-erythronolide A 11,12-(cyclic carbamate)]
13 | 0.851 nM | CC[C@H]1OC(=O)[C@H](C)[C@@H](OC(=O)N2C(=O)OC[C@@H]2C)[C@H](C)[C@@H](O[C@@H]2O[C@H](C)C[C@H](N(C)C3CCCC3)[C@H]2O)[C@](C)(OC)C[C@@H](C)C(=O)[C@H](C)[C@H]2N(CCc3ccc(F)c(Cl)c3)C(=O)O[C@]12C [Example 35, 11-Deoxy-11-[carboxy(3-chloro-4-fluorophenethyl)amino]-3-O-[4-(S)-methyl-oxazolidin-2-one]carbamoyl-5-O-(3'-N-desmethyl-3'-N-cyclopentyl)desosaminyl-6-O-methyl-erythronolide A 11,12-(cyclic carbamate)]
14 | 0.316 nM | CC[C@H]1OC(=O)[C@H](C)[C@@H](OC(=O)N2C(=O)OC[C@@H]2C)[C@H](C)[C@@H](O[C@@H]2O[C@H](C)C[C@H](N(C)CC3CC3)[C@H]2O)[C@](C)(OC)C[C@@H](C)C(=O)[C@H](C)[C@H]2N(CCc3ccc(F)cc3)C(=O)O[C@]12C [Example 28, 11-Deoxy-11-[carboxy(4-fluorophenethyl)amino]-3-O-[4-(S)-methyl-oxazolidin-2-one]carbamoyl-5-O-(3'-N-desmethyl-3'-N-cyclopropylmethyl)desosaminyl-6-O-methyl-erythronolide A 11,12-(cyclic carbamate)]
15 | 0.155 nM | CC[C@H]1OC(=O)[C@H](C)[C@@H](OC(=O)N2C(=O)OC[C@@H]2C)[C@H](C)[C@@H](O[C@@H]2O[C@H](C)C[C@H](N(C)C(C)C)[C@H]2O)[C@](C)(OC)C[C@@H](C)C(=O)[C@H](C)[C@H]2N(CCc3ccc(F)cc3)C(=O)O[C@]12C [Example 32, 11-Deoxy-11-[carboxy(4-fluorophenethyl)amino]-3-O-[4-(S)-methyl-oxazolidin-2-one]carbamoyl-5-O-(3'-N-desmethyl-3'-N-isopropyl)desosaminyl-6-O-methyl-erythronolide A 11,12-(cyclic carbamate)]
